{
  "source": "paper PMC10135057",
  "about": "“Molecular Modification of Kex2 P1’ Site Enhances Expression and Druggability of Fungal Defensin” (Antibiotics, 2023)",
  "key": {"[1]": {"test_system": "S. aureus ATCC 43300", "assay": "Post-antibiotic effect (PAE)", "format": "cell-based, Staphylococcus aureus", "conditions": "2× MIC, 2 h exposure, 10^8 CFU/mL S. aureus ATCC 43300, 1000-fold dilution", "text": "After the exposed time, the bacteria suspension was reconstructed by dilution to 1000 times with MHB medium to remove the influence of peptides and antibiotics. Samples were taken every hour, and then coated on MHA plate after gradient dilution. The calculation formula was from previous studies."}, "[2]": {"test_system": "S. aureus ATCC 43300", "assay": "Stability in mouse serum (MIC after treatment)", "format": "in vitro ADME, Staphylococcus aureus", "conditions": "mouse serum (25%), 1–4 h; MIC vs S. aureus ATCC 43300; triplicate", "experimental": "(§1) The tolerance of FNZ to temperature and pH was evaluated. The stability of FNZ in simulated gastric fluid, artificial intestinal fluid and mouse serum was carried out as previously described. […] All assays were conducted in triplicate."}, "[3]": {"test_system": "S. aureus ATCC 43300", "assay": "microbe, parasite or virus in culture", "format": "cell-based, Staphylococcus aureus", "experimental": "The effects of combination were evaluated by calculating the FICI. FICI ≤ 0.5 was defined as synergy, 0.5 < FICI ≤ 1 was defined as additivity, 1 < FICI ≤ 4 was defined as indifference, and FICI > 4 was defined as antagonism."}, "[4]": {"test_system": "Escherichia coli ATCC 25922", "assay": "microbe, parasite or virus in culture", "format": "cell-based", "conditions": "Escherichia coli, ATCC25922", "experimental": "(§2) The minimal inhibitory concentrations (MICs) assay was performed according to the CLSI procedures with the final peptide concentrations of 256, 128, 64, 32, 16, 8, 4, 2, 1, and 0.5 μg/mL, respectively. All tests were conducted in triplicate."}, "[5]": {"test_system": "Staphylococcus aureus ATCC 43300", "assay": "microbe, parasite or virus in culture", "format": "cell-based", "conditions": "Staphylococcus aureus, ATCC43300", "experimental": "as §2"}, "[6]": {"test_system": "S. aureus ATCC 43300", "assay": "pH stability (MIC after pH treatment)", "format": "physicochemical, Staphylococcus aureus", "conditions": "MIC vs S. aureus ATCC 43300, triplicate", "experimental": "as §1"}, "[7]": {"test_system": "S. aureus ATCC 43300", "assay": "Salts stability (MIC after incubation with Na+ or Mg2+)", "format": "cell-based, Staphylococcus aureus", "conditions": "for MIC: read-out: MIC after treatment"}, "[8]": {"test_system": "S. aureus ATCC 43300", "assay": "Stability in artificial intestinal fluid (MIC after treatment)", "format": "in vitro ADME, Staphylococcus aureus", "conditions": "10 min, MIC vs S. aureus ATCC 43300, triplicate", "experimental": "as §1"}, "[9]": {"test_system": "S. aureus ATCC 25923", "assay": "microbe, parasite or virus in culture", "format": "cell-based, Staphylococcus aureus", "conditions": "Staphylococcus aureus, ATCC25923", "experimental": "as §2"}, "[10]": {"test_system": "S. aureus CVCC 546", "assay": "microbe, parasite or virus in culture", "format": "cell-based, Staphylococcus aureus", "conditions": "Staphylococcus aureus, CVCC546", "experimental": "as §2"}, "[11]": {"test_system": "S. aureus E48", "assay": "microbe, parasite or virus in culture", "format": "cell-based, Staphylococcus aureus", "conditions": "Staphylococcus aureus, E48", "experimental": "as §2"}, "[12]": {"test_system": "S. aureus ATCC 43300", "assay": "Bactericidal kinetics (time-killing curves)", "format": "cell-based, Staphylococcus aureus", "conditions": "2× MIC, within 2 h; S. aureus ATCC 43300, 10^6 CFU/mL", "experimental": "The S. aureus ATCC 43300 in logarithmic growth stage was diluted to a final concentration of 10^6 CFU/mL. […] Samples were taken at 0, 0.5, 1, 2, 4, 6, 8, 10, 20, and 24 h, serially diluted, and visible colonies were counted on MHA plates."}, "[13]": {"test_system": "S. aureus ATCC 43300", "assay": "Thermal stability (MIC after heat treatment)", "format": "physicochemical, Staphylococcus aureus", "conditions": "MIC vs S. aureus ATCC 43300, triplicate", "experimental": "as §1"}, "[14]": {"test_system": "S. epidermidis ATCC 12228", "assay": "microbe, parasite or virus in culture", "format": "cell-based, Staphylococcus epidermidis", "conditions": "Staphylococcus epidermidis, ATCC12228", "experimental": "as §2"}, "[15]": {"test_system": "S. aureus ATCC 43300", "assay": "Stability in simulated gastric fluid (MIC after treatment)", "format": "in vitro ADME, Staphylococcus aureus", "conditions": "1 h, MIC vs S. aureus ATCC 43300, triplicate", "experimental": "as §1"}, "[16]": {"test_system": "Pseudomonas aeruginosa CICC 20625", "assay": "Minimal inhibitory concentration (MIC)", "format": "cell-based", "conditions": "CICC20625, CLSI procedure, triplicate", "experimental": "as §2"}, "[17]": {"test_system": "Salmonella enterica ATCC 13076", "assay": "Minimal inhibitory concentration (MIC)", "format": "cell-based", "conditions": "ATCC13076, CLSI procedure, triplicate", "experimental": "as §2"}, "[18]": {"conditions": "50 mM Mg2+, 37 °C, 1 h, MIC vs S. aureus ATCC 43300, triplicate"}, "[19]": {"conditions": "100 mM Mg2+, 37 °C, 1 h, MIC vs S. aureus ATCC 43300, triplicate"}, "[20]": {"conditions": "100 mM Na+, 37 °C, 1 h, MIC vs S. aureus ATCC 43300, triplicate"}, "[21]": {"conditions": "150 mM Mg2+, 37 °C, 1 h, MIC vs S. aureus ATCC 43300, triplicate"}, "[22]": {"conditions": "150 mM Na+, 37 °C, 1 h, MIC vs S. aureus ATCC 43300, triplicate"}, "[23]": {"conditions": "300 mM Mg2+, 37 °C, 1 h, MIC vs S. aureus ATCC 43300, triplicate"}, "[24]": {"conditions": "300 mM Na+, 37 °C, 1 h, MIC vs S. aureus ATCC 43300, triplicate"}, "[25]": {"conditions": "500 mM Mg2+, 37 °C, 1 h, MIC vs S. aureus ATCC 43300, triplicate"}, "[26]": {"conditions": "500 mM Na+, 37 °C, 1 h, MIC vs S. aureus ATCC 43300, triplicate"}},
  "note": "Where “and” joins values, the source holds several entries; their conditions need not be identical. Identical values can stand only once.",
  "data": [
    {"smiles": "CN[C@H](CC(C)C)C(=O)N[C@H]1C(=O)N[C@@H](CC(N)=O)C(=O)N[C@H]2C(=O)N[C@H]3C(=O)N[C@H](C(=O)N[C@H](C(=O)O)c4cc(O)cc(O)c4-c4cc3ccc4O)[C@H](O)c3ccc(c(Cl)c3)Oc3cc2cc(c3O[C@@H]2O[C@H](CO)[C@@H](O)[C@H](O)[C@H]2O[C@H]2C[C@](C)(N)[C@H](O)[C@H](C)O2)Oc2ccc(cc2Cl)[C@H]1O", "note": "[Vancomycin, vancomycin]", "values": [
      {"measurement": "PAE", "setting": "[1]", "result": 1.3, "unit": "h"},
      {"measurement": "MIC after treatment", "setting": "[2]", "result": "1 μg/mL and 0.67 μM"},
      {"measurement": "MIC", "setting": "[3]; Staphylococcus aureus, ATCC43300, 16 h, read-out: MICa (MIC of drug alone)", "result": 1, "unit": "µg/mL"},
      {"measurement": "Combination effect with FNZ (in words)", "setting": "[3]; checkerboard, S. aureus ATCC 43300", "result": "synergistic effect"},
      {"measurement": "FIC", "setting": "[3]; combination FNZ + Van, S. aureus ATCC 43300", "result": 0.125},
      {"measurement": "MICc (MIC of drug used in combination)", "setting": "[3]; combination FNZ + Van, S. aureus ATCC 43300, checkerboard, 37 °C, 16 h", "result": 0.125, "unit": "µg/mL"},
      {"measurement": "FICI (fractional inhibitory concentration index)", "setting": "[3]; combination of FNZ with the named antibiotic, S. aureus ATCC 43300, ≤0.5 synergy, 0.5-1 additivity, 1-4 indifference, >4 antagonism", "result": "0.25 and < 0.5"},
      {"measurement": "MIC", "setting": "[4]", "result": "128 µg/mL and 86 µM"},
      {"measurement": "MIC", "setting": "[5]", "result": "1 µg/mL and 0.67 µM"},
      {"measurement": "MIC after treatment", "setting": "[6]; pH 2", "result": "1 μg/mL and 0.67 μM"},
      {"measurement": "MIC after treatment", "setting": "[6]; pH 4", "result": "1 μg/mL and 0.67 μM"},
      {"measurement": "MIC after treatment", "setting": "[6]; pH 6", "result": "1 μg/mL and 0.67 μM"},
      {"measurement": "MIC after treatment", "setting": "[6]; pH 8", "result": "1 μg/mL and 0.67 μM"},
      {"measurement": "MIC after treatment", "setting": "[6]; pH 10", "result": "1 μg/mL and 0.67 μM"},
      {"measurement": "MIC after treatment", "setting": "[7]; [18]", "result": 1, "unit": "µg/mL"},
      {"measurement": "MIC", "setting": "[7]; [18]", "result": 0.67, "unit": "µM"},
      {"measurement": "MIC after treatment", "setting": "[7]; [19]", "result": 1, "unit": "µg/mL"},
      {"measurement": "MIC", "setting": "[7]; [19]", "result": 0.67, "unit": "µM"},
      {"measurement": "MIC after treatment", "setting": "[7]; [20]", "result": 1, "unit": "µg/mL"},
      {"measurement": "MIC", "setting": "[7]; [20]", "result": 0.67, "unit": "µM"},
      {"measurement": "MIC after treatment", "setting": "[7]; [21]", "result": 1, "unit": "µg/mL"},
      {"measurement": "MIC", "setting": "[7]; [21]", "result": 0.67, "unit": "µM"},
      {"measurement": "MIC after treatment", "setting": "[7]; [22]", "result": 1, "unit": "µg/mL"},
      {"measurement": "MIC", "setting": "[7]; [22]", "result": 0.67, "unit": "µM"},
      {"measurement": "MIC after treatment", "setting": "[7]; [23]", "result": 1, "unit": "µg/mL"},
      {"measurement": "MIC", "setting": "[7]; [23]", "result": 0.67, "unit": "µM"},
      {"measurement": "MIC after treatment", "setting": "[7]; [24]", "result": 1, "unit": "µg/mL"},
      {"measurement": "MIC", "setting": "[7]; [24]", "result": 0.67, "unit": "µM"},
      {"measurement": "MIC after treatment", "setting": "[7]; [25]", "result": 1, "unit": "µg/mL"},
      {"measurement": "MIC", "setting": "[7]; [25]", "result": 0.67, "unit": "µM"},
      {"measurement": "MIC after treatment", "setting": "[7]; [26]", "result": 1, "unit": "µg/mL"},
      {"measurement": "MIC", "setting": "[7]; [26]", "result": 0.67, "unit": "µM"},
      {"measurement": "MIC", "setting": "[7]; Staphylococcus aureus, ATCC43300, 1 h", "result": "1 µg/mL and 0.67 µM"},
      {"measurement": "MIC after treatment", "setting": "[8]", "result": "1 μg/mL and 0.67 μM"},
      {"measurement": "MIC", "setting": "[9]", "result": "4 µg/mL and 2.69 µM"},
      {"measurement": "MIC", "setting": "[10]", "result": "1 µg/mL and 0.67 µM"},
      {"measurement": "MIC", "setting": "[11]", "result": "1 µg/mL and 0.67 µM"},
      {"measurement": "Decrease of bacterial counts (log10 CFU/mL)", "setting": "[12]", "result": 0.216, "unit": "log10 CFU/mL"},
      {"measurement": "MIC after treatment", "setting": "[13]; 20 °C for 1 h", "result": "1 μg/mL and 0.67 μM"},
      {"measurement": "MIC after treatment", "setting": "[13]; 40 °C for 1 h", "result": "1 μg/mL and 0.67 μM"},
      {"measurement": "MIC after treatment", "setting": "[13]; 60 °C for 1 h", "result": "1 μg/mL and 0.67 μM"},
      {"measurement": "MIC after treatment", "setting": "[13]; 80 °C for 1 h", "result": "1 μg/mL and 0.67 μM"},
      {"measurement": "MIC after treatment", "setting": "[13]; 100 °C for 1 h", "result": "1 μg/mL and 0.67 μM"},
      {"measurement": "MIC", "setting": "[14]", "result": "1 µg/mL and 0.67 µM"},
      {"measurement": "MIC after treatment", "setting": "[15]", "result": "1 μg/mL and 0.67 μM"},
      {"measurement": "MIC", "setting": "[16]", "result": "> 128 µg/mL and > 86 µM"},
      {"measurement": "MIC", "setting": "[17]", "result": "> 128 µg/mL and > 86 µM"}
    ]}
  ]
}
